Assay results as given in patent US8258138B2, “Potassium channel blockers” (Xention Limited, priority 2008, dated 2012).

Experiments:
[1] = molecular target: T1, human Kv1.3 (Homo sapiens, UniProt P22001); test: Kv1.3 Autopatch electrophysiology (whole cell patch-clamp, inhibition of charge movement); assay type: cell-based; details: compound at 1 μM; cells stably transfected with human Kv1.3; room temperature; total charge during step to +30 mV relative to control; read-out: hKv1.3 % inh.
T1 construct: expressed in transfected cells; host or cells: stably transfected cells grown in medium for CHO cells
T1 sequence (P22001 whole entry): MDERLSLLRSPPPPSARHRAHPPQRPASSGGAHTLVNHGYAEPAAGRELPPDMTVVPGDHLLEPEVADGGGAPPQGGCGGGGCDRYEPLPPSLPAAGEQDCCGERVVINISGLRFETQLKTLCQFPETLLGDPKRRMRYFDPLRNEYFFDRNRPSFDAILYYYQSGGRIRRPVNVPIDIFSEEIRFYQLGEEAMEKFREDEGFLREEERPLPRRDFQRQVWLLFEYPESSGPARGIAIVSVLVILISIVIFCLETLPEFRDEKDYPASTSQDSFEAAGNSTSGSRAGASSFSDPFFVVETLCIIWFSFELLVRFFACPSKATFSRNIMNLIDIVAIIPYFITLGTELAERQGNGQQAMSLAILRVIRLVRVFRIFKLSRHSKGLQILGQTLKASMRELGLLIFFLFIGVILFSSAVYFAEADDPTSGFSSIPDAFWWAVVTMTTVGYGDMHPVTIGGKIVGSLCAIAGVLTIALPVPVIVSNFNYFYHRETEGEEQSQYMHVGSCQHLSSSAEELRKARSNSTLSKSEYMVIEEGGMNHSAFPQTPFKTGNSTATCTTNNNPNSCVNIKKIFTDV
Experimental: Kv1.3 Autopatch Electrophysiology Method
Compounds were tested on these cells using the AutoPatch technology in whole cell mode.
The external bathing solution contained (in mM): 150 NaCl, 10 KCl, 1 MgCl2, 3 CaCl2, 10 HEPES, pH 7.4 with NaOH. Patch pipettes were filled with an electrode solution of composition (in mM): 100 K-Gluconate, 20 KCl, 1 MgCl2, 1 CaCl2, 10 HEPES, 11 EGTA, 5 ATP-Na2, 2 Glutathione pH 7.2 with KOH.
Compounds were dissolved in DMSO (100%) and made up in the external bather at a concentration of 1 μM immediately prior to use. All experiments were conducted at room temperature.
A cell suspension (10 ml), with a density of 6×10^6 cells, was aliquoted into a 15 ml centrifuge tube and stored at 4° C. before use. Prior to use a tube was taken and centrifuged at 1000 rpm for 4 mins at room temperature. The supernatant was then discarded, leaving a cell pellet at the bottom of the tube. The pellet was then resuspended using 1 ml of cold (4° C.), filtered (0.22 μm), 0.05% BSA/bather solution (0.05 g BSA/100 ml bather). The bottom of the tube was manually agitated followed by gentle tituration. The cell suspension was then placed in the AutoPatch™ temperature controlled cell-hotel at 14° C. and regularly titurated.
A length of Teflon capillary tubing was dipped into the cell suspension solution, and a column of fluid was taken up by negative pressure. The column of fluid was in electrically connectivity with a Ag/AgCl reference electrode. Borosilicate glass patch pipettes (from 1.5 mm OD, thin-walled filamented, GC150-TF capillary glass, Harvard) were pulled using a DMZ pipette puller (Zeitz Instruments), and were back-filled using the internal pipette solution, being careful that no bubbles remained at the tip or in the body of the pipette. Patch pipettes typically had resistances of 2.5-3.5 MΩ. Once filled, the pipette tip and a proportion of the shaft (˜15 mm) were dipped into Sigmacote (Sigma). The recording pipettes were placed in a multiwell array and mounted on the AutoPatch™ machine. Automated patch-clamping and drug-application was initiated by the operator, but thereafter AutoPatch.exe continued the experiment providing that pre-set conditions and criteria were satisfied.
Whole cell patch-clamp recordings were made using the AutoPatch™ rig, which incorporated an EPC9 or EPC10 amplifier (HEKA, Germany) under control of Pulse software (v8.54 or v8.76, HEKA, Germany), a cell applicator, automated drug application system (DAS), valve controller (VF1) and a suction device all at room temperature. This equipment was completely under the control of AutoPatch.exe and operator intervention was only made when there was a requirement to refill the bather reservoirs or to prevent the loss of a cell due to a technical error.
Cells were continuously perfused with external solution at a flow rate of ˜2 ml/minute.
Electrophysiology voltage-step protocols and analysis of data was performed as follows. Data were sampled at 5 kHz, and filtered with a −3 dB bandwidth of 2.5 kHz. Cells were held at a voltage of −80 mV. Currents were evoked by a voltage step to +30 mV for 500 ms in duration applied every 15 s. Online analysis of the hKv1.3 current during the application of compounds was performed by the Pulse (v8.54 or v8.76, HEKA, Germany), Excel (Microsoft, USA) and AutoPatch™ software, with the total charge measured during the whole of voltage step. Inhibition of charge movement in the presence of drug was calculated relative to control.

[2] = molecular target: hKv1.5 (Homo sapiens, UniProt P22460); test: Kv1.5 Autopatch electrophysiology (whole cell patch-clamp); assay type: cell-based; details: compound at 1 μM; room temperature (22-24° C.); total charge during step to 0 mV; read-out: hKv1.5 % inh.
hKv1.5, sequence (P22460 whole entry): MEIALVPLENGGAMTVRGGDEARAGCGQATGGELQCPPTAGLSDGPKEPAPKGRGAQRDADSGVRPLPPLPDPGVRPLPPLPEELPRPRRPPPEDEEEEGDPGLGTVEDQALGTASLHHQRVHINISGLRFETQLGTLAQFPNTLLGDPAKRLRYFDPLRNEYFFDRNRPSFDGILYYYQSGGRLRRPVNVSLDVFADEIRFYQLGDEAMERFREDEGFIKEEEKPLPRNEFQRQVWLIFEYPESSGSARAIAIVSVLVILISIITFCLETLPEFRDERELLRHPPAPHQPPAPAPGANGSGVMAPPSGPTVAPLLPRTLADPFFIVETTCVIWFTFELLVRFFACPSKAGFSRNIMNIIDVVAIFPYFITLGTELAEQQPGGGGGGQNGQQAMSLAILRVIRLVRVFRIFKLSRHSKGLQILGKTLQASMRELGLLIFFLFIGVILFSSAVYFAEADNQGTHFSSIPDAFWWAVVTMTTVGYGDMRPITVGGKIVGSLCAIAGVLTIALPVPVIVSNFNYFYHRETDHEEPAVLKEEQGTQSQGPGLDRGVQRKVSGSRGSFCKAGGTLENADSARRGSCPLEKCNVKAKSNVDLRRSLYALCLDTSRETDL
Experimental: Kv1.5 Autopatch Electrophysiology Method
The external bathing solution contained (in mM): 150 NaCl, 10 KCl, […], 3 MgCl2, 1 CaCl2, 10 HEPES, pH 7.4. Patch pipettes were filled with an electrode solution of composition (in mM): 160 KCl, 0.5 MgCl2, 10 HEPES, 1 EGTA, pH 7.4 with KOH.
Compounds were dissolved in DMSO (100%) and made up in the external bather at a concentration of 1 μM. All experiments were conducted at room temperature (22-24° C.).
A cell suspension (10 ml), with a density of 100,000 cells/ml, was aliquoted into a 15 ml centrifuge tube and transferred to an incubator (37° C., 5% CO2) for approximately one hour before use. Following 60 min incubation, a tube was taken and centrifuged at 1000 rpm for 4 mins at room temperature. 9.5 ml supernatant was thence discarded, leaving a cell pellet at the bottom of the tube. The pellet was then resuspended using 100 μl of cold (4° C.), filtered (0.22 μm), 0.2% BSA/bather solution (0.02 g BSA/10 ml bather). The bottom of the tube was manually agitated gently until the solution became cloudy with cells. The 100 μl cell resuspension solution was then stored on the bench at 4° C. (using a Peltier-based temperature control device) until used.
A length of capillary glass (1B150F-4, WPI) was dipped into the cell suspension solution, such that ˜3 cm column of fluid was taken up by capillary action. A Ag/AgCl wire was dropped into the non-dipped end of the capillary also. The outside of the solution-filled end of the capillary was then dried and the capillary was loaded into the AutoPatch™.
Borosilicate glass patch pipettes (from 1.5 mm OD, thin-walled filamented, GC150-TF capillary glass, Harvard) were pulled using a DMZ pipette puller (Zeitz Instruments), and were back-filled using the internal pipette solution, being careful that no bubbles remain at the tip or in the body of the pipette. Patch pipettes typically had resistances of 2.3-3.5 MΩ. Once filled, the pipette tip and a proportion of the shaft (˜15 mm) were dipped into Sigmacote (Sigma). The recording pipette was then loaded into the AutoPatch™ Automated patch-clamping was initiated by the operator, but thereafter AutoPatch.exe continued the experiment providing that pre-set conditions and criteria were satisfied.
Whole cell patch-clamp recordings were made using the AutoPatch™ rig, which incorporated an EPC9 amplifier (HEKA, Germany) under control of Pulse software (v8.54, HEKA, Germany), a motion controller with 2 translators (Newport, UK), valve controller (VF1) and a c-level suction device all at room temperature (22-24° C.). This equipment was completely under the control of AutoPatch.exe and operator intervention was only made when there was a requirement to refill the drug reservoirs or to prevent the loss of a cell due to a technical error. Cells with an Rseries greater than 18 MΩ were discounted from the experiment.
Qualification stages prior to perfusion and drug application ensured that the observed current met the criteria for the experiment. Only those cells with an IK>500 pA were used for experiments. Cells were continuously perfused with external solution at a flow rate of 1.8-2 ml/minute. […] Online analysis of the hKv1.5 current during the application of compounds was performed by the AutoPatch™ software. Voltage-step protocols and analysis of data was performed as described for conventional electrophysiology.
Electrophysiology voltage-step protocols and analysis of data was performed as follows. Data was sampled at 5 kHz, and filtered with a −3 dB bandwidth of 2.5 kHz. Cells were held at a voltage of −80 mV. Currents were evoked to a voltage step for 1000 ms in duration at 0 mV every 5 s. Currents were analysed using Pulsefit software (v8.54, HEKA, Germany), with the total charge measured during the whole of the voltage step. All other plots were produced using Igor Pro (WaveMetrics).

inhibition at 1 µM [1]	inhibition at 1 µM [2]	SMILES
47%	58.9%	CC1(C)CCc2cc(S(=O)(=O)N(Cc3ccccc3)c3ccc(C(=O)N4CCN(c5ccccc5)CC4)cc3)ccc2O1 [Example 39, 2,2-Dimethyl-chroman-6-sulfonic acid benzyl-[4-(4-phenyl-piperazine-1-carbonyl)-phenyl]-amide]
69%	61.3%	COc1ccc(S(=O)(=O)N(Cc2ccccc2)c2ccc(C(=O)N3CCN(c4ccccc4)CC3)cc2)cc1OC [Example 14, N-Benzyl-3,4-dimethoxy-N-[4-(4-phenyl-piperazine-1-carbonyl)-phenyl]-benzenesulfonamide]
82%	85.5%	Cc1ccccc1S(=O)(=O)N(Cc1ccccc1)c1ccc(C(=O)N2CCN(c3ccccc3)CC2)cc1 [Example 26, N-Benzyl-2-methyl-N-[4-(4-phenyl-piperazine-1-carbonyl)-phenyl]-benzenesulfonamide]
66%	80.4%	O=C(c1ccc(N(Cc2ccccc2)S(=O)(=O)c2ccc3c(c2)OCCO3)cc1)N1CCN(c2ccccc2)CC1 [Example 15, 2,3-Dihydro-benzo[1,4]dioxine-6-sulfonic acid benzyl-[4-(4-phenyl-piperazine-1-carbonyl)-phenyl]-amide]
77%	48.1%	Cc1ccc(S(=O)(=O)N(Cc2ccccc2)c2ccc(C(=O)N3CCN(c4ccccc4)CC3)cc2)cc1 [Example 16, N-Benzyl-4-methyl-N-[4-(4-phenyl-piperazine-1-carbonyl)-phenyl]-benzenesulfonamide]
67%	61.6%	O=C(c1ccc(N(Cc2cccc(F)c2)S(=O)(=O)c2ccccc2)cc1)N1CCN(c2ccccc2)CC1 [Example 31, N-(3-Fluoro-benzyl)-N-[4-(4-phenyl-piperazine-1-carbonyl)-phenyl]-benzenesulfonamide]
79%	93.1%	N#Cc1cccc(S(=O)(=O)N(Cc2ccccc2)c2ccc(C(=O)N3CCN(c4ccccc4)CC3)cc2)c1 [Example 23, N-Benzyl-3-cyano-N-[4-(4-phenyl-piperazine-1-carbonyl)-phenyl]-benzenesulfonamide]
84%	71.9%	N#Cc1ccccc1S(=O)(=O)N(Cc1ccccc1)c1ccc(C(=O)N2CCN(c3ccccc3)CC2)cc1 [Example 24, N-Benzyl-2-cyano-N-[4-(4-phenyl-piperazine-1-carbonyl)-phenyl]-benzenesulfonamide]
56%	55.7%	COc1cccc(CN(c2ccc(C(=O)N3CCN(c4ccccc4)CC3)cc2)S(=O)(=O)c2ccccc2)c1 [Example 33, N-(3-Methoxy-benzyl)-N-[4-(4-phenyl-piperazine-1-carbonyl)-phenyl]-benzenesulfonamide]

Further lines, the molecule ahead of its results:

SMILES	inhibition at 1 µM [1]	inhibition at 1 µM [2]
O=C(c1ccc(N(Cc2ccccc2Cl)S(=O)(=O)c2ccccc2)cc1)N1CCN(c2ccccc2)CC1 [Example 10, N-(2-Chloro-benzyl)-N-[4-(4-phenyl-piperazine-1-carbonyl)-phenyl]-benzenesulfonamide]	86%	47.9%
O=C(c1ccc(N(Cc2ccc(Cl)cc2)S(=O)(=O)c2cccnc2)cc1)N1CCCCC1 [Example 87, Pyridine-3-sulfonic acid (4-chloro-benzyl)-[4-(piperidine-1-carbonyl)-phenyl]-amide]	62%	56%
Cc1nn(C)cc1S(=O)(=O)N(Cc1ccccc1)c1ccc(C(=O)N2CCN(c3ccccc3)CC2)cc1 [Example 46, 1,3-Dimethyl-1H-pyrazole-4-sulfonic acid benzyl-[4-(4-phenyl-piperazine-1-carbonyl)-phenyl]-amide]	66%	62.9%
Cn1cnc(S(=O)(=O)N(Cc2cccc(Cl)c2)c2ccc(C(=O)N3CCCCC3)cc2)c1 [Example 93, 1-Methyl-1H-imidazole-4-sulfonic acid (3-chloro-benzyl)-[4-(piperidine-1-carbonyl)-phenyl]-amide]	67%	43.4%
Cn1cnc(S(=O)(=O)N(Cc2ccccc2)c2ccc(C(=O)N3CCN(c4ccccc4)CC3)cc2F)c1 [Example 50, 1-Methyl-1H-imidazole-4-sulfonic acid benzyl-[2-fluoro-4-(4-phenyl-piperazine-1-carbonyl)-phenyl]-amide]	69%	56.8%
Cc1ccc(CN(c2ccc(C(=O)N3CCN(c4ccccc4)CC3)cc2)S(=O)(=O)c2cn(C)cn2)cc1 [Example 43, 1-Methyl-1H-imidazole-4-sulfonic acid (4-methyl-benzyl)-[4-(4-phenyl-piperazine-1-carbonyl)-phenyl]-amide]	78%	46.4%
Cn1cnc(S(=O)(=O)N(Cc2ccccc2)c2ccc(C(=O)N3CCOC(c4ccccc4)C3)cc2F)c1 (centres unmarked) [Example 68, 1-Methyl-1H-imidazole-4-sulfonic acid benzyl-[2-fluoro-4-(2-phenyl-morpholine-4-carbonyl)-phenyl]-amide]	90%	62.8%
